Reference: ChEMBL document CHEMBL1134880, “Quantum chemical- and 3-D-QSAR (CoMFA) studies of benzalacetones and 1,1,1-trifluoro-4-phenyl-3-buten-2-ones” (Bioorg Med Chem Lett, 2002)

The compounds below were run on Escherichia coli (assay: Inhibition of UV-induced mutagenesis in Escherichia coli WP2uvrA).
Assay type: functional, organism-based

Row | Structure (SMILES) | IC50 [µM]
1 | CCOc1cccc(/C=C/C(C)=O)c1O | 1200
2 | N#Cc1ccc(/C=C/C(=O)C(F)(F)F)cc1 | 25.1
3 | COc1ccc(/C=C/C(=O)C(F)(F)F)cc1 | 74.1
4 | O=C(/C=C/c1cccc(Cl)c1)C(F)(F)F | 24
5 | CC(=O)/C=C/c1cccc(C#N)c1 | 282
6 | CC(=O)/C=C/c1ccccc1F | 339
7 | CC(=O)/C=C/c1cccc(C)c1 | 1510
8 | CC(=O)/C=C/c1cccc([N+](=O)[O-])c1 | 151
9 | CC(=O)/C=C/c1ccccc1O | 229
10 | CC(=O)/C=C/c1ccccc1Cl | 525
11 | CC(=O)/C=C/c1ccc(C)cc1 | 1580
12 | COc1ccc(/C=C/C(C)=O)cc1 | 1580
13 | COc1cccc(/C=C/C(C)=O)c1 | 708
14 | CC(=O)/C=C/c1ccc(F)cc1 | 631
15 | CC(=O)/C=C/c1ccccc1Br | 398
16 | CC(=O)/C=C/c1ccc([N+](=O)[O-])cc1 | 83.2
17 | CC(=O)/C=C/c1cc(C)c(O)c(C)c1 | 1100
18 | CC(=O)/C=C/c1cccc(C(F)(F)F)c1 | 219

Row | Structure (SMILES) | IC50 [µM]
19 | COc1cccc(/C=C/C(C)=O)c1O | 676
20 | CC(=O)/C=C/c1ccc(Br)cc1 | 525
21 | CC(=O)/C=C/c1cccc(Br)c1 | 407
22 | CC(=O)/C=C/c1cccc(F)c1 | 257
23 | O=C(/C=C/c1ccc(Cl)cc1)C(F)(F)F | 15.8
24 | CCc1ccc(/C=C/C(C)=O)cc1 | 1200
25 | CC(=O)/C=C/c1cccc(Cl)c1 | 427
26 | O=C(/C=C/c1cccc([N+](=O)[O-])c1)C(F)(F)F | 17
27 | CC(=O)/C=C/c1ccc(C(F)(F)F)cc1 | 110
28 | CC(=O)/C=C/c1cccc(C)c1O | 240
29 | O=C(/C=C/c1ccccc1Cl)C(F)(F)F | 28.2
30 | CC(=O)/C=C/c1ccc(O)c(O)c1 | 977
31 | O=C(/C=C/c1ccccc1)C(F)(F)F | 30.2
32 | N#Cc1cccc(/C=C/C(=O)C(F)(F)F)c1 | 17
33 | CC(=O)/C=C/c1ccc(Cl)cc1 | 324
34 | CC(=O)/C=C/c1ccc(C#N)cc1 | 170
35 | CC(=O)/C=C/c1ccc(O)cc1 | 1200
